Experimental findings from patent publication US20230279016A1, “Tetrahydropyrazolopyrimidines and Related Analogs for Inhibiting YAP/TAZ-TEAD” (THE KATHOLIEKE UNIVERSITEIT LEUVEN, priority 2021, published 2023) are described below.

For one assay, the system named is YAP/TAZ-TEAD transcription. The assay can be described thus: Reporter gene assay for measuring the inhibition of YAP/TAZ-TEAD transcription (TEAD-responsive element luciferase reporter in Hek293T cells). Type of assay: cell-based. Particulars: Hek293T cells transiently transfected with TEAD-responsive element luciferase reporter, 24 hours incubation. The method, then: Hek293T cells are cultured in DMEM supplemented with 10% fetal bovine serum, Sodium pyruvate, Sodium bicarbonate, L-glutamine. The cells are harvested and transiently transfected with TEAD-responsive element luciferase reporter. Transfected cells are plated in 384-wells plate containing pre-diluted compounds. After 24 hours incubation at 37° C./5%CO2, assay plates were cooled down to RT and levelled to an equal volume per well, prior to the addition of 25 uL luciferase substrate SteadyLite (Perkin Elmer)/well. The plate was shaken for 10 min at 600 rpm, centrifuged for 1min at 500 rpm and measured with an Envision reader (PerkinElmer). The amount of relative light units produced by the TEAD reporter is used to calculated percent of inhibition.
The percent of reporter inhibition was calculated in the presence of a positive control inhibitor (100% inhibition) versus a condition with the presence of the vehicle basal activity of the reporter (0% inhibition). The ability of a test compound to inhibit this activity was determined as:
Percentage inhibition=[1-((RLU determined in the presence of vehicle—RLU determined for sample with test compound present) divided by (RLU determined in the presence of vehicle — RLU determined for sample with positive control inhibitor))] * 100
The activities of the example compounds tested are depicted in the table below. The activity ranges A, B and C refer to EC50 values in the reporter gene assay as described as follows: “A”: EC50 <1 μM; “B” : 1 μM≤EC50≤20 μM and “C” : EC50>20 μM, NT=not tested.
(In general: Reporter assays use an easily measured gene product as a stand-in for the process of interest.)
By EC50 is commonly meant the concentration at which the effect is half-maximal. Lower therefore signals an effect from little substance. In turn, `C=CC(=O)NCC1CN(c2ccc(C(F)(F)F)cc2)c2cc(C3CC3)nn2C1` (single isomer, unassigned) [Cpd. No. 031-En1, (R)- or (S)-N-((2-cyclopropyl-4-(4-(trifluoromethyl)phenyl)-4,5,6,7-tetrahydropyrazolo[1,5-a]pyrimidin-6-yl)methyl)acrylamide] showed an EC50 of less than 1000 nM.

For the compound `C=CC(=O)NCC1CN(c2ccc(C(F)(F)F)cc2)c2cc(C3CC3)nn2C1` (single isomer, unassigned) [Cpd. No. 031-En2, (R)- or (S)-N-((2-cyclopropyl-4-(4-(trifluoromethyl)phenyl)-4,5,6,7-tetrahydropyrazolo[1,5-a]pyrimidin-6-yl)methyl)acrylamide], the half-maximal effective concentration (EC50) is less than 1000 nM.

On to `C=CC(=O)NCC1CN(c2ccc(C(F)(F)F)cc2)c2cc(CC3CC3)nn2C1` (single isomer, unassigned) [Cpd. No. 032-En1, (R)- or (S)-N-((2-(cyclopropylmethyl)-4-(4-(trifluoromethyl)phenyl)-4,5,6,7-tetrahydropyrazolo[1,5-a]pyrimidin-6-yl)methyl)acrylamide], for which the concentration for a half-maximal effect (EC50) is less than 1000 nM.

Compound `C=CC(=O)NCC1CN(c2ccc(C(F)(F)F)cc2)c2cc(CC3CC3)nn2C1` (single isomer, unassigned) [Cpd. No. 032-En2, (R)- or (S)-N-((2-(cyclopropylmethyl)-4-(4-(trifluoromethyl)phenyl)-4,5,6,7-tetrahydropyrazolo[1,5-a]pyrimidin-6-yl)methyl)acrylamide] registered an EC50 of less than 1000 nM.

In the case of `C=CC(=O)NCC1CN(c2ccc(C(F)(F)F)cc2)c2cc(C#N)nn2C1` (single isomer, unassigned) [Cpd. No. 033-En1, (R)- or (S)-N-((2-cyano-4-(4-(trifluoromethyl)phenyl)-4,5,6,7-tetrahydropyrazolo[1,5-a]pyrimidin-6-yl)methyl)acrylamide], the EC50 is 1000 to 20000 nM.

`C=CC(=O)NCC1CN(c2ccc(C(F)(F)F)cc2)c2cc(C#N)nn2C1` (single isomer, unassigned) [Cpd. No. 033-En2, (R)- or (S)-N-((2-cyano-4-(4-(trifluoromethyl)phenyl)-4,5,6,7-tetrahydropyrazolo[1,5-a]pyrimidin-6-yl)methyl)acrylamide] displayed an EC50 of less than 1000 nM.

Consider `C=CC(=O)NCC1CN(c2ccc(C(F)(F)F)cc2)c2cc(C(F)(F)F)nn2C1` (single isomer, unassigned) [Cpd. No. 034-En1, (R)- or (S)-N-((2-(trifluoromethyl)-4-(4-(trifluoromethyl)phenyl)-4,5,6,7-tetrahydropyrazolo[1,5-a]pyrimidin-6-yl)methyl)acrylamide], for which the EC50 is less than 1000 nM.

`C=CC(=O)NCC1CN(c2ccc(C(F)(F)F)cc2)c2cc(C(F)(F)F)nn2C1` (single isomer, unassigned) [Cpd. No. 034-En2, (R)- or (S)-N-((2-(trifluoromethyl)-4-(4-(trifluoromethyl)phenyl)-4,5,6,7-tetrahydropyrazolo[1,5-a]pyrimidin-6-yl)methyl)acrylamide] yielded an EC50 of less than 1000 nM.

`C=CC(=O)NCC1CN(C(=O)C2CCCCC2)c2ccnn2C1` (single isomer, unassigned) [Cpd. No. 046-En1, (R)- or (S)-N-((4-(cyclohexanecarbonyl)-4,5,6,7-tetrahydropyrazolo[1,5-a]pyrimidin-6-yl)methyl)acrylamide] displayed an EC50 of 1000 to 20000 nM.

`C=CC(=O)NCC1CN(C(=O)C2CCCCC2)c2ccnn2C1` (single isomer, unassigned) [Cpd. No. 046-En2, (R)- or (S)-N-((4-(cyclohexanecarbonyl)-4,5,6,7-tetrahydropyrazolo[1,5-a]pyrimidin-6-yl)methyl)acrylamide] registered an EC50 of 1000 to 20000 nM.

In turn, `C=CC(=O)NC1CN(c2ccc(C(F)(F)F)cc2)c2ccnn2C1` (single isomer, unassigned) [Cpd. No. 061-En1, (R)- or (S)-N-(4-(4-(trifluoromethyl)phenyl)-4,5,6,7-tetrahydropyrazolo[1,5-a]pyrimidin-6-yl)acrylamide] returned a concentration for a half-maximal effect (EC50) of less than 1000 nM.

Regarding `C=CC(=O)NC1CN(c2ccc(C(F)(F)F)cc2)c2ccnn2C1` (single isomer, unassigned) [Cpd. No. 061-En2, (R)- or (S)-N-(4-(4-(trifluoromethyl)phenyl)-4,5,6,7-tetrahydropyrazolo[1,5-a]pyrimidin-6-yl)acrylamide], the EC50 is less than 1000 nM.

The compound `C=CC(=O)NC1CN(c2ccc(C(F)(F)F)cc2F)c2ccnn2C1` (single isomer, unassigned) [Cpd. No. 065-En2, (R)- or (S)-N-(4-(2-fluoro-4-(trifluoromethyl)phenyl)-4,5,6,7-tetrahydropyrazolo[1,5-a]pyrimidin-6-yl)acrylamide] had an EC50 of less than 1000 nM.

The compound `C=CC(=O)N1CCC2(C1)CN(c1ccc(C(F)(F)F)cc1)c1ccnn1C2` (single isomer, unassigned) [Cpd. No. 088-En1, (R)- or (S)-1-(4-(4-(trifluoromethyl)phenyl)-4,5-dihydro-7H-spiro[pyrazolo[1,5-a]pyrimidine-6,3′-pyrrolidin]-1′-yl)prop-2-en-1-one] gave an EC50 of less than 1000 nM.

With `C=CC(=O)N1CCC2(C1)CN(c1ccc(C(F)(F)F)cc1)c1ccnn1C2` (single isomer, unassigned) [Cpd. No. 088-En2, (R)- or (S)-1-(4-(4-(trifluoromethyl)phenyl)-4,5-dihydro-7H-spiro[pyrazolo[1,5-a]pyrimidine-6,3′-pyrrolidin]-1′-yl)prop-2-en-1-one], the 50% effective concentration (EC50) is less than 1000 nM.

As for `CS(=O)(=O)N1CCC2(CN(c3ccc(C(F)(F)F)cc3)c3ccnn3C2)C1=O` (single isomer, unassigned) [Cpd. No. 089-En2, (R)- or (S)-1′-(methylsulfonyl)-4-(4-(trifluoromethyl)phenyl)-4,5-dihydro-7H-spiro[pyrazolo[1,5-a]pyrimidine-6,3′-pyrrolidin]-2′-one], the EC50 is greater than 20000 nM.

With `CN1CCC2(CN(c3ccc(C(F)(F)F)cc3)c3ccnn3C2)C1=O` (single isomer, unassigned) [Cpd. No. 090-En2, (R)- or (S)-1′-methyl-4-(4-(trifluoromethyl)phenyl)-4,5-dihydro-7H-spiro[pyrazolo[1,5-a]pyrimidine-6,3′-pyrrolidin]-2′-one], the 50% effective concentration (EC50) is greater than 20000 nM.

Consider `C=CC(=O)NCC1CN(c2ccc(C(F)(F)F)cc2)c2cnc(C(F)(F)F)n2C1` (single isomer, unassigned) [Cpd. No. 094-En1, (R)- or (S)-N-((6-(trifluoromethyl)-1-(4-(trifluoromethyl)phenyl)-1,2,3,4-tetrahydroimidazo[1,5-a]pyrimidin-3-yl)methyl)acrylamide], for which the concentration giving a half-maximal response (EC50) is less than 1000 nM.

Compound `C=CC(=O)NCC1CN(c2ccc(C(F)(F)F)cc2)c2cnc(C(F)(F)F)n2C1` (single isomer, unassigned) [Cpd. No. 094-En2, (R)- or (S)-N-((6-(trifluoromethyl)-1-(4-(trifluoromethyl)phenyl)-1,2,3,4-tetrahydroimidazo[1,5-a]pyrimidin-3-yl)methyl)acrylamide] displayed an EC50 of less than 1000 nM.

Staying with this assay, now noted: Homo sapiens, HEK-293T, 24 h, Hek293T cells transiently transfected with TEAD-responsive element luciferase reporter, 24 hours incubation.
The compound `C=CC(=O)NCC1CN(c2ccc(OC(F)(F)F)cc2)c2cc(C(F)(F)F)nn2C1` (single isomer, unassigned) [Cpd. No. 035-En1, (R)- or (S)-N-((4-(4-(trifluoromethoxy)phenyl)-2-(trifluoromethyl)-4,5,6,7-tetrahydropyrazolo[1,5-a]pyrimidin-6-yl)methyl)acrylamide] displayed an EC50 of less than 1000 nM.

In turn, `C=CC(=O)NCC1CN(Cc2ccccc2)c2ccnn2C1` (single isomer, unassigned) [Cpd. No. 049-En2, (R)- or (S)-N-((4-benzyl-4,5,6,7-tetrahydropyrazolo[1,5-a]pyrimidin-6-yl)methyl)acrylamide] registered a half-maximal effective concentration (EC50) of less than 1000 nM.

As to `CS(=O)(=O)N1CCC2(CN(c3ccc(C(F)(F)F)cc3)c3ccnn3C2)C1=O` (single isomer, unassigned) [Cpd. No. 089-En1, (R)- or (S)-1′-(methylsulfonyl)-4-(4-(trifluoromethyl)phenyl)-4,5-dihydro-7H-spiro[pyrazolo[1,5-a]pyrimidine-6,3′-pyrrolidin]-2′-one], the concentration for a half-maximal effect (EC50) is greater than 20000 nM.

As for `CN1CCC2(CN(c3ccc(C(F)(F)F)cc3)c3ccnn3C2)C1=O` (single isomer, unassigned) [Cpd. No. 090-En1, (R)- or (S)-1′-methyl-4-(4-(trifluoromethyl)phenyl)-4,5-dihydro-7H-spiro[pyrazolo[1,5-a]pyrimidine-6,3′-pyrrolidin]-2′-one], the EC50 was greater than 20000 nM.

Turning to `C=CC(=O)NCC1CN(c2cccc(C(F)(F)F)c2)c2ccnn2C1` (centres unmarked) [Cpd. No. 003, N-((4-(3-(trifluoromethyl)phenyl)-4,5,6,7-tetrahydropyrazolo[1,5-a]pyrimidin-6-yl)methyl)acrylamide], the half-maximal effective concentration (EC50) was less than 1000 nM.

The compound `C=CC(=O)NCC1CN(c2cccc(F)c2)c2ccnn2C1` (centres unmarked) [Cpd. No. 004, N-((4-(3-fluorophenyl)-4,5,6,7-tetrahydropyrazolo[1,5-a]pyrimidin-6-yl)methyl)acrylamide] had an EC50 of less than 1000 nM.

Compound `C=CC(=O)NCC1CN(c2ccc(F)cc2)c2ccnn2C1` (centres unmarked) [Cpd. No. 006, N-((4-(4-fluorophenyl)-4,5,6,7-tetrahydropyrazolo[1,5-a]pyrimidin-6-yl)methyl)acrylamide] had a 50% effective concentration (EC50) of less than 1000 nM.
